Measurements from patent US9980943B2, “Methods of treating muscular dystrophy” (BOARD OF REGENTS OF THE NEVADA SYSTEM OF HIGHER EDUCATION, …, priority 2013, dated 2018).
Like-named read-outs stand apart in the source and are kept apart here.

Tests used:
Format in all cases: cell-based, mouse
[1] = tested on: α7 integrin (LacZ reporter in α7βgal+/− myoblasts); test: Myoblast α7+/LacZ integrin FDG assay (Burkin assay in myoblasts, 96-well); conditions: α7+/LacZ myoblasts, 96-well; for fold induction at 0.5 µM / fold induction at 1 µM / fold induction at 5 µM / fold induction at 10 µM / fold induction at 20 µM / fold induction at 40 µM: Mus musculus, Myoblast, 48 h
[2] = tested on: β-galactosidase in CMV-LacZ C2C12 myotubes; test: CMV-LacZ secondary screen in C2C12 myotubes (β-Gal stabilizing assay); conditions: for fold induction at 5 µM / fold induction at 10 µM / fold induction at 20 µM / fold induction at 40 µM: Mus musculus; for fold induction at 5 µM: C2C12, read-out: CMV-LACZ in Myotubes, signal relative to DMSO, 5 uM; for fold induction at 5 µM / fold induction at 10 µM / fold induction at 20 µM / fold induction at 40 µM / CMV-LACZ in Myotubes, signal relative to DMSO: C2C12 CMV-LacZ myotubes, fold relative to DMSO; for fold induction at 10 µM: C2C12, read-out: CMV-LACZ in Myotubes, signal relative to DMSO, 10 uM; for fold induction at 20 µM: C2C12, read-out: CMV-LACZ in Myotubes, signal relative to DMSO, 20 uM; for fold induction at 40 µM: C2C12, read-out: CMV-LACZ in Myotubes, signal relative to DMSO, 40 uM; for CMV-LACZ in Myotubes (β-galactosidase activity relative to DMSO): CMV-LacZ C2C12 myotubes, 96-well format
In short: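 CMV-LacZ C2C12 line (clonal, FDG-screened); myoblasts/myotubes dosed 0.5–40 μM (0.5, 1, 5, 10, 20, 40 μM); n=2 per point; β-gal stabilization read-out.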

[3] = tested on: α7 integrin (LacZ reporter in α7+/LacZ myotubes); test: Myotube α7 integrin FDG assay (Burkin assay in myotubes, 96-well); conditions: myotubes; for fold induction at 0.5 µM / fold induction at 1 µM / fold induction at 5 µM / fold induction at 10 µM / fold induction at 20 µM / fold induction at 40 µM: Mus musculus, Myotube
[4] = 0.5 uM, read-out: Burkin Assay in Myoblasts, value relative to DMSO
[5] = 1 uM, read-out: Burkin Assay in Myoblasts, value relative to DMSO
[6] = 5 uM, read-out: Burkin Assay in Myoblasts, value relative to DMSO
[7] = 10 uM, read-out: Burkin Assay in Myoblasts, value relative to DMSO
[8] = 20 uM, read-out: Burkin Assay in Myoblasts, value relative to DMSO
[9] = 40 uM, read-out: Burkin Assay in Myoblasts, value relative to DMSO
[10] = 0.5 uM, read-out: Burkin Assay in Myotubes (signal relative to DMSO)
[11] = 1 uM, read-out: Burkin Assay in Myotubes (signal relative to DMSO)
[12] = 5 uM, read-out: Burkin Assay in Myotubes (signal relative to DMSO)
[13] = 10 uM, read-out: Burkin Assay in Myotubes (signal relative to DMSO)
[14] = 20 uM, read-out: Burkin Assay in Myotubes (signal relative to DMSO)
[15] = 40 uM, read-out: Burkin Assay in Myotubes (signal relative to DMSO)

Structure (SMILES)	fold induction at 5 µM [2]	fold induction at 10 µM [2]	fold induction at 20 µM [2]	fold induction at 40 µM [2]	Burkin Assay in Myoblasts, value relative to DMSO ([1]; 0.5 uM)	Burkin Assay in Myoblasts, value relative to DMSO ([1]; 1 uM)	Burkin Assay in Myoblasts, value relative to DMSO ([1]; 5 uM)	Burkin Assay in Myoblasts, value relative to DMSO ([1]; 10 uM)	Burkin Assay in Myoblasts, value relative to DMSO ([1]; 20 uM)	Burkin Assay in Myoblasts, value relative to DMSO ([1]; 40 uM)	CMV-LACZ in Myotubes, signal relative to DMSO ([2]; 5 uM)	CMV-LACZ in Myotubes, signal relative to DMSO ([2]; 10 uM)	CMV-LACZ in Myotubes, signal relative to DMSO ([2]; 20 uM)	CMV-LACZ in Myotubes, signal relative to DMSO ([2]; 40 uM)	Burkin Assay in Myotubes (signal relative to DMSO) ([3]; 0.5 uM)	Burkin Assay in Myotubes (signal relative to DMSO) ([3]; 1 uM)	Burkin Assay in Myotubes (signal relative to DMSO) ([3]; 5 uM)	Burkin Assay in Myotubes (signal relative to DMSO) ([3]; 10 uM)	Burkin Assay in Myotubes (signal relative to DMSO) ([3]; 20 uM)	Burkin Assay in Myotubes (signal relative to DMSO) ([3]; 40 uM)	also measured
Cc1ccc(OCC(=O)N2CCN(S(=O)(=O)c3ccc4c(c3)OCCO4)CC2)c(C)c1 [MLS002158881-01]	0.792	0.827	0.864	0.81																	fold induction at 0.5 µM ([1]; 0.5 uM, read-out: Burkin Assay in Myoblasts, signal relative to DMSO): 0.888; fold induction at 1 µM ([1]; 1 uM, read-out: Burkin Assay in Myoblasts, signal relative to DMSO): 0.838; fold induction at 5 µM ([1]; 5 uM, read-out: Burkin Assay in Myoblasts, signal relative to DMSO): 0.989; fold induction at 10 µM ([1]; 10 uM, read-out: Burkin Assay in Myoblasts, signal relative to DMSO): 1.02; fold induction at 20 µM ([1]; 20 uM, read-out: Burkin Assay in Myoblasts, signal relative to DMSO): 1.12; fold induction at 40 µM ([1]; 40 uM, read-out: Burkin Assay in Myoblasts, signal relative to DMSO): 1.21; fold induction at 0.5 µM ([3]; 0.5 uM, read-out: Burkin Assay in Myotubes, α7 integrin LacZ reporter signal relative to DMSO): 0.896; fold induction at 1 µM ([3]; 1 uM, read-out: Burkin Assay in Myotubes, α7 integrin LacZ reporter signal relative to DMSO): 0.865; fold induction at 5 µM ([3]; 5 uM, read-out: Burkin Assay in Myotubes, α7 integrin LacZ reporter signal relative to DMSO): 0.67; fold induction at 10 µM ([3]; 10 uM, read-out: Burkin Assay in Myotubes, α7 integrin LacZ reporter signal relative to DMSO): 0.773; fold induction at 20 µM ([3]; 20 uM, read-out: Burkin Assay in Myotubes, α7 integrin LacZ reporter signal relative to DMSO): 1.2; fold induction at 40 µM ([3]; 40 uM, read-out: Burkin Assay in Myotubes, α7 integrin LacZ reporter signal relative to DMSO): 1
CC(NC(=O)c1cn(C)c2ccc(S(=O)(=O)N3CCCC3)cc2c1=O)c1ccccc1 (stereo not drawn) [MLS000913052-01]					1.116	1.038	1.076	1.067	1.113	1.202	1.115	1.287	0.9154	0.92	1.073	0.9014	1.055	1.013	0.9725	0.8287	
CCc1ccc(N(C(=O)c2snc(C(N)=O)c2N)C(C(=O)NC2CCCC2)c2ccco2)cc1 (stereo not drawn) [MLS001216714-01]																					fold induction at 0.5 µM [1, 4]: 1.02; fold induction at 1 µM [1, 5]: 0.971; fold induction at 5 µM [1, 6]: 1.04; fold induction at 10 µM [1, 7]: 1.14; fold induction at 20 µM [1, 8]: 1.09; fold induction at 40 µM [1, 9]: 0.274; CMV-LACZ in Myotubes (β-galactosidase activity relative to DMSO) ([2]; 5 uM): 0.9162; CMV-LACZ in Myotubes (β-galactosidase activity relative to DMSO) ([2]; 10 uM): 0.98; CMV-LACZ in Myotubes (β-galactosidase activity relative to DMSO) ([2]; 20 uM): 1.417; CMV-LACZ in Myotubes (β-galactosidase activity relative to DMSO) ([2]; 40 uM): 3.633; fold induction at 0.5 µM [3, 10]: 1.03; fold induction at 1 µM [3, 11]: 1.17; fold induction at 5 µM [3, 12]: 1.1; fold induction at 10 µM [3, 13]: 1.32; fold induction at 20 µM [3, 14]: 0.706; fold induction at 40 µM [3, 15]: 0.677
O=C(Nc1ccc(Cl)cc1N1CCOCC1)C1CCCCC1 [MLS001060549-01]					1.056	1.204	1.012	1.072	0.7731	0.9411	1.322	0.8952	0.8814	1.075	0.8181	1.071	0.9783	1.111	0.9391	0.9134	
O=C(O)CCn1cc(/C=C2/NC(=S)N(c3ccccc3)C2=O)c(-c2ccccc2)n1 [MLS000585616-01]	0.903	0.791	0.91	0.879																	fold induction at 0.5 µM [1, 4]: 0.681; fold induction at 1 µM [1, 5]: 0.943; fold induction at 5 µM [1, 6]: 1.01; fold induction at 10 µM [1, 7]: 0.977; fold induction at 20 µM [1, 8]: 0.935; fold induction at 40 µM [1, 9]: 0.932; fold induction at 0.5 µM [3, 10]: 0.999; fold induction at 1 µM [3, 11]: 0.958; fold induction at 5 µM [3, 12]: 1.58; fold induction at 10 µM [3, 13]: 1.15; fold induction at 20 µM [3, 14]: 1.03; fold induction at 40 µM [3, 15]: 0.962
CS(=O)(=O)N(Cc1ccc(C(=O)NC2CCCC2)cc1)c1ccccc1 [MLS000714175-01]					0.5383	0.975	1.1625	1.06	0.9936	0.9626					1.086	1.061	1.131	1.013	1.119	1.022	CMV-LACZ in Myotubes (β-galactosidase activity relative to DMSO) ([2]; 5 uM): 0.9319; CMV-LACZ in Myotubes (β-galactosidase activity relative to DMSO) ([2]; 10 uM): 1.097; CMV-LACZ in Myotubes (β-galactosidase activity relative to DMSO) ([2]; 20 uM): 1.124; CMV-LACZ in Myotubes (β-galactosidase activity relative to DMSO) ([2]; 40 uM): 0.971
